Earlier results in patent US20250178999A1, “ONE STEP SYNTHESIS OF 1-TETRALONE COMPOUNDS AND USES THEREOF IN THE PREPARATION OF (+)-TETRALONE ABSCISIC ACID (ABA)” (University of Saskatchewan, priority 2022, published 2025).
Like-named read-outs stand apart in the source and are kept apart here.

What was measured:
rice seedling = settings: Han et al 2015
lettuce = settings: Han et al 2015
Arabidopsis = settings: for IC50: Vaidya et al 2019, read-out: IC50 in germination of Arabidopsis
ABA receptors [1] = settings: Arabidopsis receptors; Vaidya et al 2019
ABA receptors [2] = settings: wheat receptors; Vaidya et al 2019
corn cell = settings: Nyangulu et al 2006
[3] = Nyangulu et al 2006
[4] = test system: corn cell suspension system; settings: Nyangulu et al 2006

| IC50 (Arabidopsis) | relative potency of 7 and (+)-5 by receptor subgroup (ABA receptors [1]) | relative potency of 7 and (+)-5 by receptor subgroup (ABA receptors [2]) | SMILES | other results |
| --- | --- | --- | --- | --- |
|  |  |  | CC(=C/C(=O)O)/C=C/C1(O)c2ccccc2C(=O)CC1(C)C (racemic) [(±)-5] | activity in rice seedling growth inhibition assay compared to racemic ABA (rice seedling): higher activity than racemic ABA; activity in seed germination assay in lettuce compared to racemic ABA (lettuce): higher activity than racemic ABA; activity in seed germination assay in arabidopsis compared to racemic ABA (Arabidopsis; Han et al 2015): higher activity than racemic ABA |
| 194 nM | more potent in subgroup II | more potent in subgroup II | CC(=C/C(=O)O)/C=C/[C@@]1(O)c2ccccc2C(=O)CC1(C)C [(+)-5, (2Z,4E)-5-((S)-1-hydroxy-2,2-dimethyl-4-oxo-1,2,3,4-tetrahydronaphthalen-1-yl)-3-methylpenta-2,4-dienoic acid] | activity in seed germination inhibition assay in Arabidopsis compared to ABA (Arabidopsis; Nyangulu et al 2006): higher activity than ABA; activity in corn cell growth inhibition assay compared to ABA (corn cell): higher activity than ABA |
| 62 nM | more the active in subgroup III | more the active in subgroup III | N#Cc1c(C2CC2)cc(CC(=O)NC2(C(=O)O)CCCCC2)cc1C1CC1 [Compound 7, opabactin, reference compound] |  |
|  |  |  | CC(=C/C(=O)O)/C=C/[C@@]1(O)c2ccccc2C(=O)C[C@]1(C)CO [Compound 8] | biological activity [3]: retain biological activity; metabolic fate in corn cell suspension system [4]: not converted to a phaseic acid-like compound |

| SMILES | IC50 (Arabidopsis) | relative potency of 7 and (+)-5 by receptor subgroup (ABA receptors [1]) | relative potency of 7 and (+)-5 by receptor subgroup (ABA receptors [2]) | other results |
| --- | --- | --- | --- | --- |
| CC1=CC(=O)CC(C)(C)[C@@]1(O)/C=C/C(C)=C\C(=O)O [(+)-1, (2Z,4E)-5-[(1S)-1-hydroxy-2,6,6-trimethyl-4-oxocyclohex-2-en-1-yl]-3-methylpenta-2,4-dienoic acid, reference compound] | 601 nM |  |  |  |
